Key:
Assay in all cases: relative viability (nuclei count vs DMSO), 5 days (fraction); higher = more cells survive
Omipalisib + Pictilisib = compound: COc1ncc(-c2ccc3nccc(-c4ccnnc4)c3c2)cc1NS(=O)(=O)c1ccc(F)cc1F [Omipalisib] + CS(=O)(=O)N1CCN(Cc2cc3nc(-c4cccc5[nH]ncc45)nc(N4CCOCC4)c3s2)CC1 [Pictilisib] (partner 1 µM)
In short: (§1)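 For relative viability, nuclei counts in treated wells were divided by those in vehicle wells. Lung cancer cell lines had been pin-tool dosed in 1536-well plates the day after seeding and cultured for 5 days, then fixed and stained in one step (final 0.05% Triton X-100, 1% formaldehyde, 1 ug/ml Hoechst) and imaged at 4×. Doses were one drug alone or a fixed anchor-drug dose plus five library-drug doses (not always all listed) in √10 steps, and values are duplicate-plate medians.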

Omipalisib + Linsitinib = compound: COc1ncc(-c2ccc3nccc(-c4ccnnc4)c3c2)cc1NS(=O)(=O)c1ccc(F)cc1F [Omipalisib] + C[C@]1(O)C[C@@H](c2nc(-c3ccc4ccc(-c5ccccc5)nc4c3)c3c(N)nccn32)C1 [Linsitinib] (partner 1 µM)
In short: as §1

Omipalisib + Dasatinib = compound: COc1ncc(-c2ccc3nccc(-c4ccnnc4)c3c2)cc1NS(=O)(=O)c1ccc(F)cc1F [Omipalisib] + Cc1nc(Nc2ncc(C(=O)Nc3c(C)cccc3Cl)s2)cc(N2CCN(CCO)CC2)n1 [Dasatinib] (partner 0.075 µM)
In short: as §1

Omipalisib + AZD7762 = compound: COc1ncc(-c2ccc3nccc(-c4ccnnc4)c3c2)cc1NS(=O)(=O)c1ccc(F)cc1F [Omipalisib] + NC(=O)Nc1cc(-c2cccc(F)c2)sc1C(=O)N[C@H]1CCCNC1 [AZD7762] (partner 0.2 µM)
In short: as §1

Omipalisib + Decitabine = compound: COc1ncc(-c2ccc3nccc(-c4ccnnc4)c3c2)cc1NS(=O)(=O)c1ccc(F)cc1F [Omipalisib] + Nc1ncn([C@H]2C[C@H](O)[C@@H](CO)O2)c(=O)n1 [Decitabine] (partner 2 µM)
In short: as §1

Omipalisib + Vorinostat = compound: COc1ncc(-c2ccc3nccc(-c4ccnnc4)c3c2)cc1NS(=O)(=O)c1ccc(F)cc1F [Omipalisib] + O=C(CCCCCCC(=O)Nc1ccccc1)NO [Vorinostat] (partner 1 µM)
In short: as §1

| Cell Line | relative viability (Omipalisib + Pictilisib; first compound 0.0003 µM) | relative viability (Omipalisib + Pictilisib; first compound 0.003 µM) | relative viability (Omipalisib + Pictilisib; first compound 0.03 µM) | relative viability (Omipalisib + Linsitinib; first compound 0.0003 µM) | relative viability (Omipalisib + Linsitinib; first compound 0.003 µM) | relative viability (Omipalisib + Linsitinib; first compound 0.03 µM) | relative viability (Omipalisib + Dasatinib; first compound 0.0003 µM) | relative viability (Omipalisib + Dasatinib; first compound 0.003 µM) | relative viability (Omipalisib + Dasatinib; first compound 0.03 µM) | relative viability (Omipalisib + AZD7762; first compound 0.0003 µM) | relative viability (Omipalisib + AZD7762; first compound 0.003 µM) | relative viability (Omipalisib + AZD7762; first compound 0.03 µM) | relative viability (Omipalisib + Decitabine; first compound 0.0003 µM) | relative viability (Omipalisib + Decitabine; first compound 0.003 µM) | relative viability (Omipalisib + Decitabine; first compound 0.03 µM) | relative viability (Omipalisib + Vorinostat; first compound 0.0003 µM) | relative viability (Omipalisib + Vorinostat; first compound 0.003 µM) | relative viability (Omipalisib + Vorinostat; first compound 0.03 µM) |
| --- | --- | --- | --- | --- | --- | --- | --- | --- | --- | --- | --- | --- | --- | --- | --- | --- | --- | --- |
| NCI-H1651 | 0.545 | 0.512 | 0.458 | 0.931 | 0.737 | 0.417 | 0.342 | 0.297 | 0.272 | 0.521 | 0.434 | 0.359 | 0.528 | 0.476 | 0.446 | 0.517 | 0.457 | 0.437 |
| LCLC-103H | 0.615 | 0.665 | 0.531 | 1.17 | 1.08 | 0.428 | 0.467 | 0.326 | 0.167 | 0.747 | 0.623 | 0.402 | 0.69 | 0.639 | 0.4 | 0.848 | 0.554 | 0.43 |
| LXF-289 | 0.772 | 0.684 | 0.671 | 0.961 | 1 | 0.793 | 0.235 | 0.119 | 0.0562 | 1.11 | 1.26 | 0.911 | 0.365 | 0.371 | 0.281 | 0.771 | 0.905 | 0.561 |
| NCI-H2023 | 0.204 | 0.181 | 0.179 | 0.513 | 0.342 | 0.234 | 0.446 | 0.213 | 0.114 |  |  |  | 0.177 | 0.215 | 0.16 | 0.356 | 0.454 | 0.161 |
| NCI-H650 | 0.867 | 0.762 | 0.631 | 0.76 | 0.689 | 0.47 | 0.469 | 0.317 | 0.266 | 0.817 | 0.766 | 0.7 | 0.375 | 0.257 | 0.321 | 0.325 | 0.337 | 0.186 |
| NCI-H1395 | 0.92 | 0.516 | 0.585 | 1.03 | 0.905 | 0.592 | 0.417 | 0.362 | 0.348 | 0.424 | 0.398 | 0.379 | 0.661 | 0.625 | 0.567 | 0.716 | 0.525 | 0.523 |
| NCI-H322M | 0.467 | 0.577 | 0.313 | 0.971 | 0.72 | 0.506 | 0.234 | 0.245 | 0.257 | 0.54 | 0.455 | 0.482 | 0.711 | 0.643 | 0.527 | 0.922 | 0.765 | 0.622 |
| NCI-H23 | 0.45 | 0.373 | 0.401 | 0.596 | 0.397 | 0.346 | 0.826 | 0.468 | 0.332 | 0.278 | 0.227 | 0.223 | 0.308 | 0.24 | 0.243 | 0.541 | 0.297 | 0.234 |
| ABC-1 | 0.72 | 0.628 | 0.533 | 0.771 | 0.572 | 0.586 | 0.424 | 0.499 | 0.35 | 0.888 | 0.929 | 0.674 | 1.05 | 0.99 | 0.742 | 1.04 | 0.76 | 0.692 |
